This note sets out measurements from article PMC2423185 (BMC Biochemistry, 2008).

In the test the target is T1, H. pylori arginase (RocF) (Helicobacter pylori, UniProt O25949).
T1 construct: gene HP_1399
T1 sequence (O25949 entry or part of it): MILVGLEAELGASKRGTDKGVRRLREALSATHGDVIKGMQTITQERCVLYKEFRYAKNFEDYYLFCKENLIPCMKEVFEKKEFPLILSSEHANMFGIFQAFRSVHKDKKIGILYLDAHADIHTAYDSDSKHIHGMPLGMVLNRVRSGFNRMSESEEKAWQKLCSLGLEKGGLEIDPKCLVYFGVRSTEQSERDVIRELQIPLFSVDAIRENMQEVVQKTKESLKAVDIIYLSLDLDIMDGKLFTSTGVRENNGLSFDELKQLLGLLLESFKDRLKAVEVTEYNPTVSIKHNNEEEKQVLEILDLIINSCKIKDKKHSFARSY

With `N=C(N)NCCC[C@H](N)C(=O)O` [L-arginine], the “L-ornithine formation by acidified ninhydrin, 515 nm” value is given as “With E. coli (pBS-rocF), optimal arginase activity was with cobalt”.
